ChEMBL document CHEMBL5543162, “Discovery of a Novel Orally Bioavailable FLT3-PROTAC Degrader for Efficient Treatment of Acute Myeloid Leukemia and Overcoming Resistance of FLT3 Inhibitors” (J Med Chem, 2024)
Activity calls are given as the source filed them. The calls are words filed in the database; no cut-off is given here.

Tests used:
[1] = tested on: Protein cereblon/Receptor-type tyrosine-protein kinase FLT3 (Homo sapiens), P36888+Q96SW2 [UNDEFINED MUTATION]; experiment: PROTAC activity at CRBN/FLT3-ITD mutant in human MV4-11 cells assessed as protein degradation at 20 nM by Western blot analysis; type: cell-based; conditions: time <= 12.0 hrs, TDE = time-dependent effect
[2] = tested on: Protein cereblon/Receptor-type tyrosine-protein kinase FLT3 (Homo sapiens), P36888+Q96SW2 [UNDEFINED MUTATION]; experiment: PROTAC activity at CRBN/FLT3-ITD mutant in human MV4-11 cells assessed as decrease in ERK level at 20 nM by Western blot analysis; type: cell-based; conditions: time <= 12.0 hrs, TDE = time-dependent effect
[3] = tested on: Protein cereblon/Receptor-type tyrosine-protein kinase FLT3 (Homo sapiens), P36888+Q96SW2 [UNDEFINED MUTATION]; experiment: PROTAC activity at CRBN/FLT3-ITD mutant in human MOLM-13 cells assessed as decrease in S6K level incubated for 12 hrs by Western blot analysis; type: cell-based; conditions: dose <= 20.0 nM
[4] = tested on: Protein cereblon/Receptor-type tyrosine-protein kinase FLT3 (Homo sapiens), P36888+Q96SW2 [UNDEFINED MUTATION]; experiment: PROTAC activity at CRBN/FLT3-ITD mutant in human MOLM-13 cells assessed as protein degradation at 20 nM by Western blot analysis; type: cell-based; conditions: time <= 12.0 hrs, TDE = time-dependent effect
[5] = tested on: Protein cereblon/Receptor-type tyrosine-protein kinase FLT3 (Homo sapiens), P36888+Q96SW2 [UNDEFINED MUTATION]; experiment: PROTAC activity at CRBN/FLT3-ITD mutant in human MOLM-13 cells assessed as decrease in STAT5 level at 20 nM by Western blot analysis; type: cell-based; conditions: time <= 12.0 hrs, TDE = time-dependent effect
[6] = tested on: Protein cereblon/Receptor-type tyrosine-protein kinase FLT3 (Homo sapiens), P36888+Q96SW2 [UNDEFINED MUTATION]; experiment: PROTAC activity at CRBN/FLT3-ITD mutant in human MOLM-13 cells assessed as decrease in ERK level at 20 nM by Western blot analysis; type: cell-based; conditions: time <= 12.0 hrs, TDE = time-dependent effect
[7] = tested on: Protein cereblon/Receptor-type tyrosine-protein kinase FLT3 (Homo sapiens), P36888+Q96SW2 [UNDEFINED MUTATION]; experiment: PROTAC activity at CRBN/FLT3-ITD mutant in human MV4-11 cells assessed as protein degradation at 100 nM incubated for 24 hrs by Western blot analysis; type: cell-based
[8] = Antiproliferative activity against human THP-1 cells expressing wild-type FLT3 incubated for 48 hrs by CCK8 assay; type: toxicity, cell-based
[9] = tested on: MV4-11; experiment: Induction of cell cycle arrest at G1 phase in human MV4-11 cells at 1 nM incubated for 24 hrs by PI/RNase staining based flow cytometry relative to control; type: functional
[10] = tested on: MV4-11; experiment: Induction of cell cycle arrest at G1 phase in human MV4-11 cells at 5 nM incubated for 24 hrs by PI/RNase staining based flow cytometry relative to control; type: functional
[11] = AUC (0 to t) in Sprague-Dawley rat at 1 mg/kg, iv measured for 24 hrs by LC-MS/MS analysis; type: ADME, organism-based; conditions: in vivo
[12] = Tmax in Sprague-Dawley rat at 10 mg/kg, po measured for 24 hrs by LC-MS/MS analysis; type: ADME, organism-based; conditions: in vivo
[13] = Volume of distribution at steady state in Sprague-Dawley rat at 10 mg/kg, po measured for 24 hrs by LC-MS/MS analysis; type: ADME, organism-based; conditions: in vivo
[14] = Clearance in Sprague-Dawley rat at 10 mg/kg, po measured for 24 hrs by LC-MS/MS analysis; type: ADME, organism-based; conditions: in vivo
[15] = tested on: MV4-11; experiment: Antitumor activity against human MV4-11 cells xenografted in nu/nu mouse at 2.5 mg/kg, po administered daily for 2 weeks relative to control; type: functional; conditions: MV4-11, 336 h, read-out: TGI
[16] = tested on: MV4-11; experiment: In vivo PROTAC activity at CRBN/FLT3-ITD mutant in human MV4-11 cells xenografted in nu/nu mouse assessed as protein degradation at 1.25 mg/kg, po administered daily for 2 weeks by immunoblot analysis; type: functional, organism-based
[17] = tested on: MV4-11; experiment: Induction of proapoptosis in human MV4-11 cells xenografted in nu/nu mouse assessed as increase in cleaved caspase-3 level at 1.25 to 10 mg/kg, po administered daily for 2 weeks; type: functional, organism-based; conditions: dose 1.25-10 mg/kg
[18] = tested on: MV4-11; experiment: Antitumor activity against human MV4-11 cells expressing luciferase xenografted in NSG mouse assessed as decrease in leukemic burden at 2.5 to 10 mg/kg, po administered daily for 3 weeks by bioluminescence imaging; type: functional, organism-based; conditions: dose 2.5-10 mg/kg
[19] = tested on: MV4-11; experiment: Antitumor activity against human MV4-11 cells expressing luciferase xenografted in NSG mouse assessed as increase in animal survival at 10 mg/kg, po administered daily for 3 weeks and measured for 77 days; type: functional, organism-based; conditions: time 77.0 day
[20] = tested on: Mus musculus; experiment: Anti-leukemic activity in NSG mouse xenografted with human MV4-11 cells expressing luciferase assessed as decrease in CD45+/CD33+ cells proportion in peripheral blood at 1.25 to 10 mg/kg, po administered daily for 3 weeks; type: functional, organism-based; conditions: dose 1.25-10 mg/kg
[21] = tested on: Mus musculus; experiment: Anti-leukemic activity in NSG mouse xenografted with human MV4-11 cells expressing luciferase assessed as decrease in CD45+/CD33+ cells proportion in bone marrow at 1.25 to 10 mg/kg, po administered daily for 3 weeks; type: functional, organism-based; conditions: dose 1.25-10 mg/kg
[22] = Toxicity in NSG mouse xenografted with human MV4-11 cells expressing luciferase assessed as physiological change at 10 mg/kg, po administered daily for 3 weeks; type: organism-based; conditions: in vivo, 504 h
[23] = tested on: MV4-11; experiment: Antitumor activity against human MV4-11 cells xenografted with nude mouse assessed as decrease in tumor growth at 120 mg/kg, po administered daily measured after 3 days; type: functional, organism-based; conditions: time 3.0 day
[24] = tested on: Protein cereblon/Receptor-type tyrosine-protein kinase FLT3 (Homo sapiens), P36888+Q96SW2 [UNDEFINED MUTATION]; experiment: PROTAC activity at CRBN/FLT3-ITD in human MV4-11 cells assessed as protein degradation by TMT-based global proteomic profiling analysis; type: cell-based
[25] = Stability in human liver microsomes assessed as half life; type: ADME, Microsome
[26] = Stability in dog liver microsomes assessed as half life; type: ADME, Canis lupus familiaris, Microsome
[27] = Stability in monkey liver microsomes assessed as half life; type: ADME, Microsome; conditions: chlorocebus aethiops
[28] = Stability in rat liver microsomes assessed as half life; type: ADME, Microsome
[29] = Stability in mouse liver microsomes assessed as half life; type: ADME, Microsome
[30] = Stability in rat liver microsomes assessed as hepatic clearance; type: ADME, Microsome
[31] = molecular target: Cytochrome P450 2D6 (Homo sapiens, UniProt P10635); experiment: Inhibition of CYP2D6 (unknown origin); type: ADME
[32] = molecular target: T1, CYP3A4/CYP3A5 (Homo sapiens, UniProt P08684+P20815); experiment: Inhibition of CYP3A4/CYP3A5 (unknown origin) using midazolam as substrate; type: ADME, protein assay; conditions: probe midazolam
[33] = molecular target: T1, CYP3A4/CYP3A5; experiment: Inhibition of CYP3A4/CYP3A5 (unknown origin) using testosterone as substrate; type: ADME, protein assay; conditions: probe testosterone
[34] = molecular target: T2, Cytochrome P450 2C8 (Homo sapiens, UniProt P10632); experiment: Inhibition of CYP2C8 (unknown origin); type: ADME
T2 sequence (P10632 whole entry): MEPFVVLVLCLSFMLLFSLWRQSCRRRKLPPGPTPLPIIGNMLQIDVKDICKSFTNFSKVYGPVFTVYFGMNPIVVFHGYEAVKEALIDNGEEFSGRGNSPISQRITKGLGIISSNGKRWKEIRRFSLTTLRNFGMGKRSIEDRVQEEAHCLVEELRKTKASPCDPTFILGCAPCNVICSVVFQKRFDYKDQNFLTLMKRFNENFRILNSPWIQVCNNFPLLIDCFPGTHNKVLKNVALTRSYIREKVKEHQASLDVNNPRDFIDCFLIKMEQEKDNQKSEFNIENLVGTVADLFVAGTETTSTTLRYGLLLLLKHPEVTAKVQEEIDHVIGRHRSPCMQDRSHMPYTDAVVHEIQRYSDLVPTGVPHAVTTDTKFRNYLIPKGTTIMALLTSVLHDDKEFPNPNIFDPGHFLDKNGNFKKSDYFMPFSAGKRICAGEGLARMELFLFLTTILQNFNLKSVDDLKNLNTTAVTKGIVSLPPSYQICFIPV

Protein cereblon/Receptor-type tyrosine-protein kinase FLT3 (Homo sapiens), P36888+Q96SW2 [UNDEFINED MUTATION], sequence (P36888 whole entry, looked up, stated change not applied): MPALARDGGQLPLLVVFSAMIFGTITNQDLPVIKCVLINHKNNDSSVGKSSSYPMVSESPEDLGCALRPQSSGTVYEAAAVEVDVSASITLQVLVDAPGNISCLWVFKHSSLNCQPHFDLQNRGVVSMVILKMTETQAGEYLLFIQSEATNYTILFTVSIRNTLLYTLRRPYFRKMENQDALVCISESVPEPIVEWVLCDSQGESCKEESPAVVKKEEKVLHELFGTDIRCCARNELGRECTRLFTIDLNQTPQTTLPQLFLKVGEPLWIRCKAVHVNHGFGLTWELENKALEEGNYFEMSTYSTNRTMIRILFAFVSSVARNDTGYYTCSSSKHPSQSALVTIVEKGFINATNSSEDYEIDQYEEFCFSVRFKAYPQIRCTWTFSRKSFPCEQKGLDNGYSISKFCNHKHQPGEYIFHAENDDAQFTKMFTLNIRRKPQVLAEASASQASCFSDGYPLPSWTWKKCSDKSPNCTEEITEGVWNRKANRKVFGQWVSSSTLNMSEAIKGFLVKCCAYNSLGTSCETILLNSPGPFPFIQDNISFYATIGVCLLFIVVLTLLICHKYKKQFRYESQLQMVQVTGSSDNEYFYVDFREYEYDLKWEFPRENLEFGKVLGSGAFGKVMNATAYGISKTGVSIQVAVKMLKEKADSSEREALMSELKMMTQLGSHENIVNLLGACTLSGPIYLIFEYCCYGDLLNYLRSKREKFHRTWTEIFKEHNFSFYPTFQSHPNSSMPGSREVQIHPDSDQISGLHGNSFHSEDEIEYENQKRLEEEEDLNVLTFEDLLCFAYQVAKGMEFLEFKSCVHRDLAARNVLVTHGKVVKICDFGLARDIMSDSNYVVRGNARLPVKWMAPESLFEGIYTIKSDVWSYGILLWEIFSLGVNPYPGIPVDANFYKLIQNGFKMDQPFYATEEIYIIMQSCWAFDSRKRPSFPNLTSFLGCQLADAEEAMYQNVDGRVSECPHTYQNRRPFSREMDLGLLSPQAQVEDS
Protein cereblon/Receptor-type tyrosine-protein kinase FLT3 (Homo sapiens), P36888+Q96SW2 [UNDEFINED MUTATION], sequence (Q96SW2 whole entry, looked up, stated change not applied): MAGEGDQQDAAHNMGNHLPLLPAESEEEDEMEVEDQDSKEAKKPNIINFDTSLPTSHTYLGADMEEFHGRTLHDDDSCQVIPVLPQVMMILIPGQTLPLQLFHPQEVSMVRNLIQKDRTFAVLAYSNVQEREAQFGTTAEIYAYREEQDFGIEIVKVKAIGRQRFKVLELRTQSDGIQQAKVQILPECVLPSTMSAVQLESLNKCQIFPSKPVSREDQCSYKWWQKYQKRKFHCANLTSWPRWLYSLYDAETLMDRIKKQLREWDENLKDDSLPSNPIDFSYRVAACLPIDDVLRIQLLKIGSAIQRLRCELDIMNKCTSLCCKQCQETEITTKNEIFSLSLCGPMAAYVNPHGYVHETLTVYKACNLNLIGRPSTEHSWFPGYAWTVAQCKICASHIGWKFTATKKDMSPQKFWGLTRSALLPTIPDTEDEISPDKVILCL
Cytochrome P450 2D6, sequence (P10635 whole entry): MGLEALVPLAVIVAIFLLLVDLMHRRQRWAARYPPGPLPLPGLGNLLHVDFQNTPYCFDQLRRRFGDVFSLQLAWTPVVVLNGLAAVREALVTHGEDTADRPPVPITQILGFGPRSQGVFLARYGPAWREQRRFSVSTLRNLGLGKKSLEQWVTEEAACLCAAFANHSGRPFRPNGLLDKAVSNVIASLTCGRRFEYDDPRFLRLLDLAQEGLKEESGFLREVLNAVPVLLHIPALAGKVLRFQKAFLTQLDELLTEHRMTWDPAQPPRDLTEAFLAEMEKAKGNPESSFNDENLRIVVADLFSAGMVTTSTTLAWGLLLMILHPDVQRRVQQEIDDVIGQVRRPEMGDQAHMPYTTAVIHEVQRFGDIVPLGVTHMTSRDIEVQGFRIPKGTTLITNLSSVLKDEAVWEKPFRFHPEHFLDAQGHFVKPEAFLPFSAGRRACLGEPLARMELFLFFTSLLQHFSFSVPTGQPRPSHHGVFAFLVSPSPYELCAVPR

Cc1c(NC(=O)CN2CCN(CC3CCN(c4ccc5c(c4)C(=O)N(C4CCC(=O)NC4=O)C5=O)CC3)CC2)c[nH]c1/C=C1\C(=O)Nc2ccc(F)cc21 (centres undefined)
Activity [1]: Tde
Activity [2]: Tde
Activity [3]: Dose-Dependent Effect
Activity [4]: Tde
Activity [5]: Tde
Activity [6]: Tde
Activity [7]: Active
IC50 at 48 h [8]: 15.1 µM
Activity [9]: 82%
Activity [10]: 85.5%
AUC(0-t) at 24 h [11]: 2770 ng·h/mL
Tmax [12]: 6.2 h
Vdss [13]: 5.7 L/kg
CL/F [14]: 11.2 mL/min/kg
inhibition in vivo at 2.5 mg/kg [15]: 84.4%
Activity [16]: Active
Activity [17]: Active
Activity [18]: Active
Activity [19]: Active
Activity [20]: Active
Activity [21]: Active
Activity [22]: Non-Toxic
Activity [23]: Active
Activity [24]: Active
half-life [25]: 1.16 h
half-life [26]: 1.88 h
half-life [27]: 0.615 h
half-life [28]: 1.54 h
half-life [29]: 0.982 h
CLhep predicted [30]: 20.5 mL/min/kg
IC50 [31]: > 50 µM
IC50 [32]: > 50 µM
IC50 [33]: > 50 µM
IC50 [34]: > 50 µM
